ChEMBL document CHEMBL1126464, “Carbamate series of juvenoids” (Bioorg Med Chem Lett, 1992)

What was measured:
[1] = test system: Galleria mellonella; experiment: Effective dose that causes 50 % inhibition of Galleria mellonella (GAL) was determined.; type: functional
[2] = test system: Acyrthosiphon pisum; experiment: Concentration required for 50% inhibition of acyrthosiphon pisum (ACY) was expressed as percent of active ingredient.; type: functional, organism-based
[3] = test system: Dysdercus cingulatus; experiment: Effective dose that causes 50 % inhibition of Dysdercus cingulatus (DYS) was determined.; type: functional

Q: How did the ED50 [1] turn out when CCOC(=O)NCCOc1ccc(CC2CCCCC23OCCO3)cc1 (stereo not given) was run?
A: 0.8 µg/kg

Q: What about the IC50 [2] of the same compound?
A: 0.005%

Q: What about the ED50 [3] of the same compound?
A: 80 µg/kg

Q: Which ED50 [1] does the source give for CCOC(=O)/C=C(C)/C=C/CC(C)CCCC(C)C (stereo not given) [HYDROPRENE] here?
A: 10 µg/kg

Q: And the IC50 [2]?
A: 0.04%

Q: What about the ED50 [3] of the same compound?
A: 1000 µg/kg

Q: What does the source list for CCOC(=O)NCCOc1ccc(C[C@H]2CCCC[C@@H]2O)cc1?
A: ED50 [1]: 0.8 µg/kg; IC50 [2]: > 0.1%; ED50 [3]: 40 µg/kg

Q: With CCOC(=O)NCCOc1ccc(C[C@@H]2CCCC[C@@H]2O)cc1 as the compound, how does the ED50 [1] read?
A: 0.8 µg/kg

Q: What about the IC50 [2] of the same compound?
A: > 0.1%

Q: And the ED50 [3]?
A: 1 µg/kg

Q: For CCOC(=O)NCCOc1ccc(CC2CCCCC2=O)cc1 (stereo not given), which ED50 [1] is on record?
A: 0.2 µg/kg

Q: And the IC50 [2]?
A: 0.05%

Q: And the ED50 [3]?
A: 8 µg/kg
